Assay results from patent publication US11648199B2 (AI Therapeutics, Inc, priority 2014, dated 2023).
“Also recorded” adds a separate entry of the source. Like-named read-outs stand apart in the source and are kept apart here.

How the values were obtained:
[1] = Rapamycin in lung and blood by LC-MS/MS after oropharyngeal aspiration (OPA) or oral gavage; assay type: in vivo, male C57BL/6 mice
Description: Test Chemical Preparation: Evans Blue was prepared at 0.5% w/v in sterile distilled water. Rapamune Oral® was administered as supplied for oral dosing.
Dosing: Each animal was weighed prior to dosing to determine the amount of dose to be administered. A single gavage dose was administered using a […], glass syringe (Hamilton, Reno, Nev.) fitted with a ball-tipped 20-G stainless steel gavage dosing needle (Popper & Sons Inc., New Hyde Park, N.Y.). The dose administered to each animal was determined from the weight of the full syringe minus that of the empty syringe. The dosing time was recorded. Dosing of animals was spaced apart to allow blood collection at the appropriate times. The dose formulations administered to each group are shown below.
Each mouse was anesthetized with isoflurane, and restrained with the mouth open. The tongue was held to one side of the mouth with forceps, and the dose was slowly injected into the distal part of the oral cavity. The nostrils were covered with a finger for two breaths to ensure aspiration (Rao et al., 2003).
Collection of Blood and Lung Samples: At study termination (1 or 72 h after dosing), mice were anesthetized by exposure to CO2, and blood was collected by cardiac puncture with dipotassium EDTA as anticoagulant. Lung tissue was excised and divided into the right and left lung. The left lung was used for analysis, and the right lung flash frozen in liquid nitrogen and stored at −70° C. for further analysis.
Triamcinolone was used as internal standard.
Lung homogenate was prepared by homogenization of weighed lung samples with 2.8-mm ball bearings in a homogenizer with tissue+deionized water (1:3 w/v) in a SPEX SamplePrep 2010 Geno/Grinder.
The concentrations of standards were arranged so that each standard came from an alternate stock standard. A six-point calibration curve, each made in triplicate, was employed for analyte quantitation. A simple linear regression model with or without weighting was employed for curve fitting. The concentration range determined was from 1-2000 ng/mL in blood and 2-2000 ng/mL in lung homogenate.
Thirty (30) μL of matrix, 30 μL of spiking solution (methanol for blanks and samples), 10 μL Internal standard solution (in MeOH) and 90 μL of MeOH were pipetted into microcentrifuge tubes, vortexed briefly, then centrifuged for 6 min at 10,000 RPM at −4° C. Aliquots (90 μL) of supernatant were transferred to LC vial inserts, and then analyzed by LC-MS/MS (Table 2).

[2] = test system: S6 phosphorylation (mTOR pathway); assay: Phosphorylated S6 by western blot in AML cells; assay type: cell-based, human; details: 20 nM, 24 hours (FIG. 7, top)
[3] = 28-day repeat dose inhalation toxicokinetics, study 7300225; assay type: in vivo, SD rats; details: average of D28
From the text: Two sets of animals were used to perform the toxicokinetic measurements for this study.

[4] = Extrapolation of rat and dog inhalation data to human dosing; details: extrapolated
[5] = 24 hours after 14th dose, cited from earlier work
[6] = sirolimus in lymphangioleiomyomatosis; cited from earlier work
[7] = clinical use; cited from earlier work
[8] = test system: TSC2 deficient TRI-AML101 cell line; assay: Cell viability, 10 point dose response, CellTiter-Glo; details: 72 hours after compound addition, relative to DMSO control (FIG. 7, bottom)
Description: Two thousand cells in 50 uL of growth media (DMEM, 10% FBS, and 1% Penicillin/Streptomycin) were plated per well in a 96 well plate. […] 72 hours after compound addition, relative cell viability was determined by CellTiter-Glo® luminescence assay (Promega) and expressed as a percentage relative to vehicle (DMSO) treated control cells.

[9] = Observation for adverse effects / clinical signs after OPA dosing; details: for adverse effects / clinical signs: 1 mg/kg, up to 72 h after dosing
Description: The oral dose was formulated using pharmaceutical oral liquid formulation Rapamune Oral® (Pfizer). […] An additional group of 6 mice received vehicle only (10% ethanol in water). […] At the 72-h necropsy, blood was obtained by cardiac puncture and the lungs removed.
The time of dosing was recorded as 0. Animals in groups 2 and 3 were euthanized at 1 h after dosing.

[10] = Biodistribution of rapamycin via inhalation, first study (single dose and 5 days)
[11] = emitted dose 50 ug, repeat inhaled daily dose 5 ug
[12] = emitted dose 2850 ug, repeat inhaled daily dose 285 ug
[13] = emitted dose 87 ug, repeat inhaled daily dose 35 ug
[14] = emitted dose 175 ug, repeat inhaled daily dose 70 ug
[15] = inhaled 0.0360 mg/kg/day once a day, trough day 5
[16] = inhaled 1.0000 mg/kg/day once a day, trough day 5

CO[C@H]1C[C@@H]2CC[C@@H](C)[C@@](O)(O2)C(=O)C(=O)N2CCCC[C@H]2C(=O)O[C@H]([C@H](C)C[C@@H]2CC[C@@H](O)[C@H](OC)C2)CC(=O)[C@H](C)/C=C(\C)[C@@H](O)[C@@H](OC)C(=O)[C@H](C)C[C@H](C)/C=C/C=C/C=C/1C [Rapamycin, (3 S,6R,7E,9R,10R,12R,14S,15E,17E,19E,21S,23 S,26R,27R,34aS)-9,10,12,13,-14,21,22,23,24,25,26,27,32,33,34,34a-hexadecahydro-9,27-dihydroxy-3-[(1R)-2-[(1S,3R,4R)-4-hydroxy-3-methoxycyclohexyl]-1-methylethyl]-10,21-dimethox-y-6,8,12,14,20,26-hexamethyl-23,27-epoxy-3H-pyrido[2,1-c][1,4]oxaazacyclohentriacontine-1,5,11,28,29(4H,6H,31H)-pentone]
rapamycin in blood, in words ([1]; OPA 1 mg/kg, 72 h): below the limit of quantitation; also recorded: undetectable | Blood (ng/ml) ([1]; OPA 1 mg/kg, 72 h post-dose, individual mice): <ELOQ | Lung (ng/g tissue) ([1]; gavage (Rapamune Oral) 1 mg/kg, 1 h post-dose, individual mice, 1 mg/kg): <LOQ | rapamycin in lung or blood, in words ([1]; oral (gavage) 1 mg/kg, 72 hrs): undetectable | S6 phosphorylation [2]: potently inhibits S6 phosphorylation | Blood trough levels [3, 11]: 2 ng/mL | Max blood levels [3, 11]: 7.6 ng/mL | Max blood levels ([3]; emitted dose 1425 ug, repeat inhaled daily dose 143 ug): 70.5 ng/mL | Blood trough levels [3, 12]: 21.0 ng/mL | Max blood levels [3, 12]: 77.8 ng/mL | Blood trough levels [4, 13]: 0.15 ng/mL | Lung 24 hr trough levels [4, 13]: 2 ng/g | Max blood levels [4, 13]: 0.65 ng/mL | Blood trough levels [4, 14]: 0.3 ng/mL | Lung 24 hr trough levels [4, 14]: 4 ng/g | Max blood levels [4, 14]: 1.3 ng/mL | Rapamycin in Blood ([5]; IV 0.04 mg/kg/day): 9.4 ng/mL | Rapamycin in Lung ([5]; IV 0.04 mg/kg/day): 219 ng/g | Rapamycin in Blood ([5]; IV 0.08 mg/kg/day): 15.0 ng/mL | Rapamycin in Lung ([5]; IV 0.08 mg/kg/day): 457 ng/g | Rapamycin in Blood ([5]; IV 0.40 mg/kg/day): 19.6 ng/mL | Rapamycin in Lung ([5]; IV 0.40 mg/kg/day): 868 ng/g | Rapamycin in Blood ([5]; oral 0.4 mg/kg/day): 0.8 ng/mL | Rapamycin in Lung ([5]; oral 0.4 mg/kg/day): 42 ng/g | Rapamycin in Blood ([5]; oral 0.8 mg/kg/day): 2.1 ng/mL | Rapamycin in Lung ([5]; oral 0.8 mg/kg/day): 59 ng/g | blood concentrations reported [6]: 5 to 15 ng/mL | lung toxicity [7]: pulmonary toxicity, usually in the form of interstitial pneumonitis | lowest concentration at which viability was inhibited [8]: 0.05 nM | adverse effects / clinical signs [9]: No significant clinical signs were observed | adverse effects / clinical signs ([9]; listed as rapamycin): No adverse effects were observed | acute toxicity to lung tissue ([9]; OPA 1 mg/kg, relatively high amounts in lung): not acutely toxic to lung tissue | Rapamycin in Blood [10, 15]: 4 ng/mL | Rapamycin in Lung [10, 15]: 87 ng/g | Rapamycin in Blood [10, 16]: 746 ng/mL | Rapamycin in Lung [10, 16]: 17163 ng/g | Rapamycin in Lung ([10]; inhaled 1.00 mg/kg/day, 12 hrs after a single dose): 14831 ng/g
